Values quoted from earlier work as cited in patent US10548837B1, “Topical montelukast for treatment of atopic dermatitis” (TARO PHARMACEUTICAL INDUSTRIES LTD., priority 2016, dated 2020).

Target: T1, cysLT1 receptor (Homo sapiens, UniProt Q9Y271)
T1 sequence (Q9Y271 1-337): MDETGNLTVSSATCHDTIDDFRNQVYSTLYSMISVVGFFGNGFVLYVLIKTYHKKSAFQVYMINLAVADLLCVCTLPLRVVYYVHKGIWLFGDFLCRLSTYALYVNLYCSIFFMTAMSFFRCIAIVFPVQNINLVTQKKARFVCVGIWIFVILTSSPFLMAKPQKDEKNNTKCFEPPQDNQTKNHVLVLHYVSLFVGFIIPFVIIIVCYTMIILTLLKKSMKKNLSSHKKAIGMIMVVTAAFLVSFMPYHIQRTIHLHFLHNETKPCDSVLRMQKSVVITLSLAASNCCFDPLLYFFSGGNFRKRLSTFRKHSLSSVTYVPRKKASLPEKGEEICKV
Details: background statement

binding to the cysLT1 receptor: high-affinity binding
Compound: COc1cc(C(=O)NS(=O)(=O)c2ccccc2C)ccc1Cc1cn(C)c2ccc(NC(=O)OC3CCCC3)cc12 [zafirlukast]
